Test results from patent US8012970B2, “Derivatives of 1-{[1,5-bis(4-chlorophenyl)-2-methyl-1H-pyrrol-3-yl]methyl}-4-methylpiperazine, synthesis process and uses thereof” (priority 2005, dated 2011).
≈ marks a conversion by molar mass, not a printed value. Like-named read-outs stand apart in the source and are kept apart here.

Tests used:
Type in all cases: cell-based
[1] = tested on: VERO cells; test: Cytotoxicity on Vero cell monolayers (MNTD50); details: maximum 50% non-toxic dose, 5 days
Experimental: The cytotoxicity was evaluated on Vero cell monolayers (ICN-Flow). They were inoculated in 6-well plates each containing 9×10^4 cells and incubated in DMEM with 5% FCS for 24 h at 37° C. in a 5% CO2 incubator. After 24 h of culture, the medium was changed and a new medium containing decreasing doses of the substances under study was added.
After 5 days, the cells were trypsinized and counted in a Neubauer chamber under a light microscope. All the tests were done in triplicate. The maximum 50% non-toxic dose (MNTD50) was defined as the drug concentration that decreased cell multiplication less than 50% with respect to the control.

[2] = tested on: M. tuberculosis 103471; test: Antimycobacterial activity, MIC in Middlebrook 7H9 broth (NCCLS procedure); details: for M. tuberculosis 103471 MIC: extracellular M. tuberculosis 103471; for MIC: Mycobacterium tuberculosis, 103471, read-out: M. tuberculosis 103471 MIC (μg/mL)
[3] = tested on: M. smegmatis 103599; test: Antimycobacterial activity toward atypical mycobacteria, MIC in broth
[4] = tested on: M. marinum 6423; test: as above
[5] = tested on: M. avium 103317; test: as above
[6] = tested on: intracellular M. tuberculosis; test: Inhibitory activity on intramacrophagic mycobacteria in U937 cells differentiated into macrophages; details: Mycobacterium tuberculosis, read-out: MIC (μg/mL) Inhibition of intramacrophagic mycobacteria
Experimental: Inhibitory Activity of 6e and 7c on Intramacrophagic Mycobacteria.
The bactericidal activity of such compounds on intracellular mycobacteria was studied on U937 cells (INC-FLOW), a human hystiocytic cell line. Cells were differentiated into macrophages with 20 ng/mL of phorbol myristate acetate (PMA, Sigma) and grown in RPMI 1640 medium with 10% fetal calf serum.

[7] = Mycolicibacterium smegmatis, 103599; read-out: MIC (μg/mL) M. smegmatis 103599
[8] = Mycobacterium marinum, 6423; read-out: MIC (μg/mL) M. marinum 6423
[9] = Mycobacterium avium, 103317; read-out: MIC (μg/mL) M. avium 103317

Row | SMILES | MNTD50 (μg/mL) VERO cells [1] [µg/mL] | M. tuberculosis 103471 MIC [2] [µg/mL] | MIC (μg/mL) M. smegmatis 103599 [3] [µg/mL] | MIC (μg/mL) M. marinum 6423 [4] [µg/mL] | MIC (μg/mL) M. avium 103317 [5] [µg/mL] | MIC [2] [µg/mL] | MIC [3, 7] [µg/mL] | MIC [4, 8] [µg/mL] | MIC [5, 9] [µg/mL] | MIC [6] [µg/mL] | MIC ([3]; Mycolicibacterium smegmatis, 103599, read-out: MIC (μg/mL) M. smegmatis 103599) [µg/mL] | MIC ([4]; Mycobacterium marinum, 6423, read-out: MIC (μg/mL) M. marinum 6423) [µg/mL] | MIC ([5]; Mycobacterium avium, 103317, read-out: MIC (μg/mL) M. avium 103317) [µg/mL]
1 | Cc1c(CN2CCN(C)CC2)cc(-c2ccccc2Cl)n1-c1ccc(F)cc1 [Compound 6b] | 2 | 8 | >16 | >16 | 16 (≈ 40.2 µM) |  |  |  |  |  |  |  | 
2 | Cc1c(CN2CCSCC2)cc(-c2ccc(F)cc2)n1-c1ccccc1F [Compound 7c, N-(o-fluorophenyl)-2-methyl-3-thiomorpholinomethyl-5-(p-fluorophenyl)pyrrole] | 8 |  |  |  |  | 0.5 (≈ 1.3 µM) | 8 (≈ 20.8 µM) | > 16 | 8 (≈ 20.8 µM) | 3 (≈ 7.8 µM) |  |  | 
3 | Cc1c(CN2CCSCC2)cc(-c2ccc(F)cc2)n1-c1cccc2ccccc12 [Compound 7k] | 2 | 4 | >16 | 16 (≈ 38.4 µM) | 8 (≈ 19.2 µM) |  |  |  |  |  |  |  | 
4 | Cc1c(CN2CCN(C)CC2)cc(-c2ccc(F)cc2F)n1-c1ccc(F)cc1 [Compound 6j] | 8 | 4 | >16 | >16 | 16 (≈ 40.1 µM) |  |  |  |  |  |  |  | 
5 | Cc1c(CN2CCSCC2)cc(-c2ccccc2Cl)n1-c1ccc(F)cc1 [Compound 6a] | 4 | 4 | >16 | >16 | 16 (≈ 39.9 µM) |  |  |  |  |  |  |  | 
6 | Cc1c(CN2CCSCC2)cc(-c2ccc(F)cc2)n1-c1ccc(F)cc1F [Compound 7i] | 16 | 2 | >16 | 16 (≈ 39.8 µM) | 16 (≈ 39.8 µM) |  |  |  |  |  |  |  | 
7 | [H]/N=C(/N)N[C@H]1[C@H](O)[C@@H](O)[C@H](O[C@@H]2O[C@@H](C)[C@](O)(C=O)[C@H]2O[C@@H]2O[C@@H](CO)[C@H](O)[C@@H](O)[C@@H]2NC)[C@@H](N/C(N)=N\[H])[C@@H]1O [Streptomycin, reference compound] | >64 |  |  |  |  | 0.5 (≈ 0.86 µM) | 8 (≈ 13.8 µM) | 32 (≈ 55 µM) | 8 (≈ 13.8 µM) |  |  |  | 
8 | Cc1c(CN2CCN(C)CC2)cc(-c2ccc(F)cc2)n1-c1ccccc1F [Compound 7d] | 8 | 8 | 0.3 (≈ 0.786 µM) | >16 | 16 (≈ 41.9 µM) |  |  |  |  |  |  |  | 
9 | Cc1c(CN2CCSCC2)cc(-c2cccc3ccccc23)n1-c1ccc(F)cc1 [Compound 6k] | >128 | >16 | >16 | >16 | >16 |  |  |  |  |  |  |  | 
10 | Cc1c(CN2CCN(C)CC2)cc(-c2ccc(F)cc2)n1-c1cccc2ccccc12 [Compound 7l] | 4 | 4 | >16 | 8 (≈ 19.3 µM) | 8 (≈ 19.3 µM) |  |  |  |  |  |  |  | 
11 | CO[C@H]1/C=C/O[C@@]2(C)Oc3c(C)c(O)c4c(O)c(c(/C=N/N5CCN(C)CC5)c(O)c4c3C2=O)NC(=O)/C(C)=C\C=C\[C@H](C)[C@H](O)[C@@H](C)[C@@H](O)[C@@H](C)[C@H](OC(C)=O)[C@@H]1C [Rifampin, reference compound] | 64 | 0.3 |  |  |  | 0.3 (≈ 0.365 µM) | 32 (≈ 38.9 µM) | 0.6 (≈ 0.729 µM) | 0.3 (≈ 0.365 µM) | 3 (≈ 3.65 µM) |  |  | 
12 | Cc1ccc(-c2cc(CN3CCSCC3)c(C)n2-c2ccc(F)cc2)cc1 [Compound 6e, N-(p-fluorophenyl)-2-methyl-3-thiomorpholinomethyl-5-(p-methylphenyl)pyrrole] | 64 |  |  |  |  | 0.4 (≈ 1.05 µM) | 16 (≈ 42 µM) | 8 (≈ 21 µM) | 8 (≈ 21 µM) | 3 (≈ 7.88 µM) |  |  | 
13 | Cc1ccc(-c2cc(CN3CCN(C)CC3)c(C)n2-c2ccc(F)cc2)cc1 [Compound 6f] | 8 | 4 | 8 (≈ 21.2 µM) | >16 | 4 (≈ 10.6 µM) |  |  |  |  |  |  |  | 
14 | Cc1c(CN2CCN(C)CC2)cc(-c2ccc(F)cc2)n1-c1ccc(Cl)cc1Cl [Compound 7h] | 2 | 4 | >16 | 8 (≈ 18.5 µM) | 4 (≈ 9.25 µM) |  |  |  |  |  |  |  | 
15 | Cc1ccc(-n2c(-c3ccc(F)cc3)cc(CN3CCSCC3)c2C)cc1 [Compound 7e] | 8 | 4 | 16 (≈ 42 µM) | 8 (≈ 21 µM) | 8 (≈ 21 µM) |  |  |  |  |  |  |  | 
16 | Cc1c(CN2CCN(C)CC2)cc(-c2cccc3ccccc23)n1-c1ccc(F)cc1 [Compound 6l] | 4 | 16 | >16 | 16 (≈ 38.7 µM) | 8 (≈ 19.3 µM) |  |  |  |  |  |  |  | 
17 | Cc1c(CN2CCSCC2)cc(-c2ccc(F)cc2F)n1-c1ccc(F)cc1 [Compound 6i] | 16 | 0.5 | >16 | 16 (≈ 39.8 µM) | 16 (≈ 39.8 µM) |  |  |  |  |  |  |  | 
18 | Cc1c(CN2CCN(C)CC2)cc(-c2ccc(F)cc2)n1-c1ccccc1Cl [Compound 7b] | 8 | 4 | >16 | >16 | >16 |  |  |  |  |  |  |  | 
19 | Cc1c(CN2CCN(C)CC2)cc(-c2ccccc2F)n1-c1ccc(F)cc1 [Compound 6d] | 4 | 16 | >16 | >16 | >16 |  |  |  |  |  |  |  | 
20 | NNC(=O)c1ccncc1 [Isoniazid, reference compound] | 32 |  |  |  |  | 0.25 (≈ 1.82 µM) |  |  |  |  | 64 (≈ 467 µM) | 16 (≈ 117 µM) | 32 (≈ 233 µM)
21 | Cc1c(CN2CCSCC2)cc(-c2ccc(F)cc2)n1-c1ccc(Cl)cc1Cl [Compound 7g] | 4 | 1 | 16 (≈ 36.7 µM) | 8 (≈ 18.4 µM) | 2 (≈ 4.59 µM) |  |  |  |  |  |  |  | 
22 | Cc1c(CN2CCSCC2)cc(-c2ccc(Cl)cc2Cl)n1-c1ccc(F)cc1 [Compound 6g] | 64 | 2 | >16 | >16 | 4 (≈ 9.19 µM) |  |  |  |  |  |  |  | 
23 | Cc1c(CN2CCN(C)CC2)cc(-c2ccc(Cl)cc2Cl)n1-c1ccc(F)cc1 [Compound 6h] | 16 | 8 | >16 | >16 | 2 (≈ 4.63 µM) |  |  |  |  |  |  |  | 
24 | Cc1c(CN2CCSCC2)cc(-c2ccc(F)cc2)n1-c1ccccc1Cl [Compound 7a] | 8 | 2 | >16 | >16 | >16 |  |  |  |  |  |  |  | 
25 | Cc1c(CN2CCN(C)CC2)cc(-c2ccc(F)cc2)n1-c1ccc(F)cc1F [Compound 7j] | 16 | 16 | >16 | 16 (≈ 40.1 µM) | 16 (≈ 40.1 µM) |  |  |  |  |  |  |  | 
26 | Cc1c(CN2CCN(C)CC2)cc(-c2ccc(Cl)cc2)n1-c1ccc(Cl)cc1 [BM212, 1-{[1,5-bis(4-chlorophenyl)-2-methyl-1H-pyrrol-3-yl]methyl}-4-methylpiperazine] | 4 |  |  |  |  | 0.7 (≈ 1.69 µM) | 25 (≈ 60.3 µM) | 100 (≈ 241 µM) | 0.4 (≈ 0.965 µM) |  |  |  | 
27 | Cc1ccc(-n2c(-c3ccc(F)cc3)cc(CN3CCN(C)CC3)c2C)cc1 [Compound 7f] | 8 | 16 | >16 | 8 (≈ 21.2 µM) | 16 (≈ 42.4 µM) |  |  |  |  |  |  |  | 
28 | Cc1c(CN2CCSCC2)cc(-c2ccccc2F)n1-c1ccc(F)cc1 [Compound 6c] | 16 | 0.5 | >16 | >16 | 16 (≈ 41.6 µM) |  |  |  |  |  |  |  | 
